Experimental data as given in US9566312B2, “Cyclic peptides and use as medicines” (priority 2012, dated 2017).
Where two headings read alike, the source gives them in different places. Starred links: 1 amine or outer side, 2 acyl side, 3 side chain; linkers in the order of their positions; H or OH if unused. Non-standard residues stand in square brackets, D forms with d. Residues, ends and D or L forms follow the SMILES beside them. X26 = C[C@H](CN1CCn2c(nnc2C(F)(F)F)C1)[C@@H](C(=O)[*:2])N(C)[*:1]; X55 = C[C@H](CN(C)CC(=O)N(C)C)[C@@H](C(=O)[*:2])N(C)[*:1]; X46 = C[C@H](CN1CC2CCC(C1)O2)[C@@H](C(=O)[*:2])N(C)[*:1]; X51 = C[C@H](CN1CCC2(COC2)C1)[C@@H](C(=O)[*:2])N(C)[*:1]; MeBmt = C/C=C/C[C@@H](C)[C@@H](O)[C@H](NC)C(=O)O; NMeL = CN[C@@H](CC(C)C)C(=O)O; NMeV = CN[C@H](C(=O)O)C(C)C; dNMeA = CN[C@H](C)C(=O)O; Abu = CC[C@H](N)C(=O)O

Tests used:
[1] = target: cyclophilin A (CypA) (Homo sapiens (Human), UniProt P62937); assay: Inhibitor binding to cyclophilin proteins by SPR, CypA; design: unit not given here; conditions: 1:1 binding model;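 also: Single-cycle kinetics on a Biacore T200, compound injected at several concentrations for 1 min each at 50 µL/min, then 10 min dissociation, in HEPES pH 7.4 buffer with 3% DMSO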
Chain of cyclophilin A (CypA) (P62937 whole entry): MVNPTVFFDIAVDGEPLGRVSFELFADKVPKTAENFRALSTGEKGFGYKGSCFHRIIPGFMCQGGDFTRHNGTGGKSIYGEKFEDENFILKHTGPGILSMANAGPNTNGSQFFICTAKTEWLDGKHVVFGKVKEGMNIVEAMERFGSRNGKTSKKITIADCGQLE

[2] = target: cyclophilin B (CypB) (Homo sapiens (Human), UniProt P23284); assay: Inhibitor binding to cyclophilin proteins by SPR, CypB; design: unit not given here; conditions: 1:1 binding model
Chain of cyclophilin B (CypB) (P23284 34-216): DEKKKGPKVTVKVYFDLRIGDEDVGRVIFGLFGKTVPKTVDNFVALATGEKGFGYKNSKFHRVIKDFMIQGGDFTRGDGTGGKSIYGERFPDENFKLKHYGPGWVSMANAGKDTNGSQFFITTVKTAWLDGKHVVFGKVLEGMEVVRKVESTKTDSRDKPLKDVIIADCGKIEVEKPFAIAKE
How it was run: (§1)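 Running buffer: 10 mM HEPES pH 7.4, 150 mM NaCl, 0.05% P20, 3% DMSO, with compound present. Capture of avi-tagged mono-biotinylated cyclophilin; single-cycle series, 1 min contact, 10 min dissociation. Rates and affinity fitted to a 1:1 interaction model.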

[3] = target: CypF (Homo sapiens (Human), UniProt P30405); assay: Inhibitor binding to cyclophilin proteins by SPR, CypF; conditions: 1:1 binding model
Chain of CypF (P30405 30-207): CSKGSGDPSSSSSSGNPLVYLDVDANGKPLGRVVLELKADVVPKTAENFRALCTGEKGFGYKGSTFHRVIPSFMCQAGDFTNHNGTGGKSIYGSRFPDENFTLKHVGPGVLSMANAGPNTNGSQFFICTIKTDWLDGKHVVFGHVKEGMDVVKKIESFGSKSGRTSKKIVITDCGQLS
How it was run: as §1

[4] = test system: genotype 1b subgenomic HCV replicon in Huh7.5 cells; type: cell-based, hepatitis C virus; conditions: read-out: RPLN-1b IC50
How it was run: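 Replicon inhibition read as renilla luciferase signal versus DMSO controls after 72 h incubation, in Huh7.5 cells harbouring a genotype 1b subgenomic replicon; medium phenol red-free DMEM lacking G418. CC50 determined in parallel via Cell Titer-Glo.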

[5] = test system: peripheral blood mononuclear cells (PBMC); assay: Anti-proliferative or immunosuppressive activity, BrdU incorporation in PHA-stimulated PBMC; type: cell-based; conditions: PHA 3 μg/ml, 60 hour compound treatment; read-out: EMV PBMC IC50
How it was run: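 BrdU ELISA read-out of DNA synthesis in freshly isolated PBMCs (two donors, 30,000 cells/well, X-VIVO 15). T-cell proliferation triggered with phytohemagglutinin at 3 μg/ml.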

[6] = target: organic anion transporting polypeptide 1B1 (OATP1B1) (Homo sapiens (Human), UniProt Q9Y6L6); assay: OATP assay in CHO-OATP1B1 cells;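 also: inhibition of probe substrate uptake into the cells, ten minutes exposure, accumulated substrate read by fluorescence once cells were lysed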
Chain of organic anion transporting polypeptide 1B1 (OATP1B1) (Q9Y6L6 whole entry): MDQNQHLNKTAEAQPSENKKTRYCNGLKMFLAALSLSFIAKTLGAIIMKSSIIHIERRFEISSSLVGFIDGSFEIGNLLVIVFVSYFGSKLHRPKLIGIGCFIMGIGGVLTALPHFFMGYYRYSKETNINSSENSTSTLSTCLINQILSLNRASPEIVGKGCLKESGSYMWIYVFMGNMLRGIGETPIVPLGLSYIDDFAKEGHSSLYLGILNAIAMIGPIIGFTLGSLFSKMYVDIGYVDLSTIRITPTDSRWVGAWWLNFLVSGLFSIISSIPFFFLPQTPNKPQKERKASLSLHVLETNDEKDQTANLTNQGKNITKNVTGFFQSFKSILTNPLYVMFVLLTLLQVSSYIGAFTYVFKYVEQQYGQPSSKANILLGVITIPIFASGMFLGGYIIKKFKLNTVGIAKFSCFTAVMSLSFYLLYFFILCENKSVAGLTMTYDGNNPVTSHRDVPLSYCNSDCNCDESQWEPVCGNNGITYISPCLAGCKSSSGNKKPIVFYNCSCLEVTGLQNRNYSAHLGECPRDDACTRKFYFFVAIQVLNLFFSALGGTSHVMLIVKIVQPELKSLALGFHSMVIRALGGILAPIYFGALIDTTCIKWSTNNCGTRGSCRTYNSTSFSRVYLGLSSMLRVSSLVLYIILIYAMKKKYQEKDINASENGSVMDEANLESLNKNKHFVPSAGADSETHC

[7] = genotype 1b replicon, 72 h incubation

| SMILES | CypA Kd [1] | CypB Kd [2] | CypF Kd [3] [nM] | IC50 [4, 7] [nM] | IC50 [5] [µM] | IC50 [6] [nM] | IC50 [4] [nM] |
| --- | --- | --- | --- | --- | --- | --- | --- |
| C/C=C/C[C@@H](C)[C@@H](O)[C@H]1C(=O)N[C@@H](CC)C(=O)N(C)[C@H](CCCO)C(=O)N(C)[C@@H]([C@H](C)CS(C)(=O)=O)C(=O)N[C@@H](C(C)C)C(=O)N(C)[C@@H](CC(C)C)C(=O)N[C@@H](C)C(=O)N[C@H](C)C(=O)N(C)[C@@H](CC(C)C)C(=O)N(C)[C@@H](CC(C)C)C(=O)N(C)[C@@H](C(C)C)C(=O)N1C (stereo in doubt) [Compound 3.4.1, 3-[(R)-5-hydroxy-2-(methylamino)pentanoyl]-4-[(2S,3S)-3-methyl-2-(methylamino)-4-(methylsulfonyl)butanoyl]-cyclosporin] | 7.0 | 2.8 | 3.8 | 4500 | 5.8 | 2700 |  |
| C/C=C/C[C@@H](C)[C@@H](O)[C@H]1C(=O)N[C@@H](CC)C(=O)N(C)[C@H](C)C(=O)N(C)[C@@H]([C@H](C)CN2CCC3(COC3)C2)C(=O)N[C@@H](C(C)C)C(=O)N(C)[C@@H](CC(C)C)C(=O)N[C@@H](C)C(=O)N[C@H](C)C(=O)N(C)[C@@H](CC(C)C)C(=O)N(C)[C@@H](CC(C)C)C(=O)N(C)[C@@H](C(C)C)C(=O)N1C [Compound 2.5.33, 3-[D-Ala]-4-[(2S,3R)-3-methyl-2-(methylamino)-4-(2-oxa-6-azaspiro[3.4]octan-6-yl)butanoyl]-cyclosporin] (cyclo(A[dA][NMeL][NMeL][NMeV][MeBmt][Abu][dNMeA][X51]V[NMeL])) | 1.1 | 0.8 | 0.8 | 46 | 10.3 | 2000 |  |
| C/C=C/C[C@@H](C)[C@@H](O)[C@H]1C(=O)N[C@@H](CC)C(=O)N(C)[C@H](C)C(=O)N(C)[C@@H]([C@H](C)CN(C)CC(=O)N(C)C)C(=O)N[C@@H](C(C)C)C(=O)N(C)[C@@H](CC(C)C)C(=O)N[C@@H](C)C(=O)N[C@H](C)C(=O)N(C)[C@@H](CC(C)C)C(=O)N(C)[C@@H](CC(C)C)C(=O)N(C)[C@@H](C(C)C)C(=O)N1C [Compound 2.5.27, 3-[D-Ala]-4-[(2S,3R)-4-((2-(dimethylamino)-2-oxoethyl)(methyl)amino)-3-methyl-2-(methylamino)butanoyl]-cyclosporin] (cyclo(A[dA][NMeL][NMeL][NMeV][MeBmt][Abu][dNMeA][X55]V[NMeL])) | 1.4 | 0.8 | 0.8 | 26 | 14.8 | 2700 |  |
| C/C=C/C[C@@H](C)[C@@H](O)[C@H]1C(=O)N[C@@H](CC)C(=O)N(C)[C@H](C)C(=O)N(C)[C@@H]([C@H](C)CCCN2CCN(CC)CC2)C(=O)N[C@@H](C(C)C)C(=O)N(C)[C@@H](CC(C)C)C(=O)N[C@@H](C)C(=O)N[C@H](C)C(=O)N(C)[C@@H](CC(C)C)C(=O)N(C)[C@@H](CC(C)C)C(=O)N(C)[C@@H](C(C)C)C(=O)N1C (stereo in doubt) [Compound 2.19.4, 3-[D-Ala]-4-[(2S,3R)-6-(4-ethylpiperazin-1-yl)-3-methyl-2-(methylamino)hexanoyl]-cyclosporin] | 0.6 | 0.4 | 0.4 | 60 | 8.8 | 2600 |  |
| C/C=C/C[C@@H](C)[C@@H](O)[C@H]1C(=O)N[C@@H](CC)C(=O)N(C)[C@H](C)C(=O)N(C)[C@@H]([C@H](C)CN2CC3CCC(C2)O3)C(=O)N[C@@H](C(C)C)C(=O)N(C)[C@@H](CC(C)C)C(=O)N[C@@H](C)C(=O)N[C@H](C)C(=O)N(C)[C@@H](CC(C)C)C(=O)N(C)[C@@H](CC(C)C)C(=O)N(C)[C@@H](C(C)C)C(=O)N1C [Compound 2.5.3, 3-[D-Ala]-4-[(2S,3R)-4-(8-oxa-3-azabicyclo[3.2.1]octan-3-yl)-3-methyl-2-(methylamino)butanoyl]-cyclosporin] (cyclo([MeBmt][Abu][dNMeA][X46]V[NMeL]A[dA][NMeL][NMeL][NMeV])) | 2.4 | 1.8 | 1.4 |  | 5.8 | 1700 | 42 |
| C/C=C/C[C@@H](C)[C@@H](O)[C@H]1C(=O)N[C@@H](CC)C(=O)N(C)[C@H](C)C(=O)N(C)[C@@H]([C@H](C)CN2CCn3c(nnc3C(F)(F)F)C2)C(=O)N[C@@H](C(C)C)C(=O)N(C)[C@@H](CC(C)C)C(=O)N[C@@H](C)C(=O)N[C@H](C)C(=O)N(C)[C@@H](CC(C)C)C(=O)N(C)[C@@H](CC(C)C)C(=O)N(C)[C@@H](C(C)C)C(=O)N1C [Compound 2.5.19, 3-[D-Ala]-4-[(2S,3R)-3-methyl-2-(methylamino)-4-(3-(trifluoromethyl)-5,6-dihydro-[1,2,4]triazolo[4,3-a]pyrazin-7(8H)-yl)butanoyl]-cyclosporin] (cyclo(A[dA][NMeL][NMeL][NMeV][MeBmt][Abu][dNMeA][X26]V[NMeL])) | 2.8 | 1.2 | 1.6 | 75 | 12.6 | 1000 |  |
